# From article PMC3985517, “Abscisic acid dynamics in roots detected with genetically encoded FRET sensors” (eLife, 2014)
# Where two headings read alike, the source gives them in different places.
# Assays:
# ABACUS1-2µ = type: biochemical, Arabidopsis; conditions: Figure 3B-E
# [1] = parameters: method as in Kaiser and Hartung, 1981; conditions: ref Kaiser and Hartung, 1981; cited from earlier work
# Arabidopsis roots [2] = test: ABACUS1 responses in roots perfused with ABA in the RootChip16; type: in vivo
# Experimental: The RootChip16 device was used as described in detail previously for the RootChip ([Grossmann et al., 2011], [2012]). Briefly, the device was sterilized by UV light exposure, immersed in liquid growth media (¼ × MS salts, 1.28 mM MES pH 5.7 supplemented with B vitamins at final concentrations of niacin 2.3 µM, thiamine 1.5 µM, pyridoxin 1.2 µM and myo-inositol 0.3 µM), and air in the root observation chambers was removed by applying suction at the solution outlets using a microliter pipette. 5-day old Arabidopsis seedlings, germinated on 5 mm long cut 10 µl pipette tips filled with solidified growth medium (½ × MS salts, 1% Agar, 2.56 mM MES pH 5.7 supplemented with B vitamins at final concentrations of niacin 4.6 µM, thiamine 3.0 µM, pyridoxin 2.4 µM and myo-inositol 0.6 µM, were transferred onto the chip by plugging the tips into the root inlets. The chip was incubated for 24 hr under standard long-day growth conditions (16 hr high light, 22°C, 70% RH) to allow roots to grow into the observation chambers. Before imaging, the RootChip16 was inserted from below into the central aperture of the carrier and fixed with tape. Pressure lines for control over micromechanical valves and flow lines for perfusion of solutions were connected. To actuate the push-up valves on the chip, a closing pressure of 15 p.s.i (1.03 bar) was applied to the water filled control lines. […]
# Arabidopsis roots [3] = system: Arabidopsis roots; parameters: method as in Grossmann et al., 2011; conditions: ref Grossmann et al., 2011; cited from earlier work
# Arabidopsis seedlings = test: Primary root growth of ABACUS1 plant lines on ABA plates; type: in vivo
# Experimental: (§1) For ABA treatments, 20 mM (±)-ABA was prepared freshly as a stock solution in 50 mM NaOH. Mock treatment plates were made using NaOH to keep pH consistent. Root tips were marked at the time of transfer and images were acquired after 4 days growth on vertical treatment plates. Root growth after transfer were measured using FIJI (http://fiji.sc/). Each experiment included ∼15 roots per genotype and was repeated three independent times with similar results. ABA sensitivity of seed germination rate of Arabidopsis seeds was assayed after sowing on ½ × MS agar medium plates supplemented with 0, 2 or 20 µM (±)-ABA. […] Plates were stratified for 2 days at +4°C after which they were transferred to a growth chamber with standard long day conditions (16 hr high light, 22°C, 70% RH). Seeds were considered germinated at radicle emergence and germination rate was assayed 9 days post sowing in three independent experiments of 100–200 seeds per genotype. The abi1-2, hab1-1, pp2ca-1 triple mutant line was a gift from Pedro Rodriguez ([Rubio et al., 2009]).
# Arabidopsis seeds = test: Seed germination on ABA plates; type: in vivo; conditions: all genotypes; plates with 20 µM (±)-ABA
# Experimental: as §1
compound,measurement,setting,value
"O=c1[nH]c(=O)c2nc[nH]c2[nH]1 [Xanthine, xanthine]","increase in energy transfer of ABACUS1 (positive ratio change), in words",ABACUS1-2µ,did not occur
"CC1=CC(=O)CC(C)(C)[C@@]1(O)/C=C/C(C)=C\C(=O)O [ABA, abscisic acid]",pKa,[1],4.7
same,accumulation rate of a non-pre-exposed root relative to a root pre-exposed to ABA,"Arabidopsis roots [2]; first ABA pulse, 5 µM (±)-ABA, ABACUS1-2µ roots",nearly twice
same,time to saturation of sensor responses,"Arabidopsis roots [2]; typical experiment, roots",~15 min
"OC[C@H]1OC(O)[C@H](O)[C@@H](O)[C@@H]1O (stereo partly drawn) [Glucose, glucose]",time to saturation of sensor responses,Arabidopsis roots [3],less than 1 min
CC1=CC(=O)CC(C)(C)C1(O)/C=C/C(C)=C\C(=O)O (racemic) [(±)-ABA],root growth of ABACUS1-2µ sensor lines,Arabidopsis seedlings; 20 µM exogenous (±)-ABA,almost completely inhibited
same,root growth of ABACUS1-80µ plants,Arabidopsis seedlings; 100 µM exogenous (±)-ABA,strongly inhibited
same,germination,Arabidopsis seeds,0%
"O=S(=O)(NCc1ccccn1)c1ccc(Br)c2ccccc12 [Pyrabactin, pyrabactin]","increase in energy transfer of ABACUS1 (positive ratio change), in words",ABACUS1-2µ,induced
